In US11780826B2 (Amgen Inc., priority 2017, dated 2023):

test system: Bovine cardiac myofibrils; experiment: In vitro model of dose-dependent myofibril ATPase modulation (AC1.4, pyruvate kinase/lactate dehydrogenase-coupled ATPase assay at pCa25); format: biochemical; conditions: concentration at which ATPase activity was 1.4-fold higher than the bottom of the dose curve, mean of a minimum of two independent tests
How it was run: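 Compound dilutions were premixed with myofibrils, coupling enzymes, EGTA and CaCl2, then the reaction was started with an equal volume carrying ATP (final 1 mM), NADH and PEP. ATP turnover was followed at 340 nm, and dose responses were fit to a four-parameter equation.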

Q: `N#CC1CN(S(=O)(=O)N2CCCC(F)(C(=O)N3CCC[C@@H]3C(=O)NCc3ccc(C(F)(F)F)cc3)C2)C1` (stereo partly drawn) [Example 183, 1-((-1-((3-cyano-1-azetidinyl)sulfonyl)-3-fluoro-3-piperidinyl)carbonyl)-N-(4-(trifluoromethyl)benzyl)-D-prolinamide] was tested. Which AC1.4 did it give?
A: The AC1.4 was 0.3361 µM.

Q: Which AC1.4 does the source give for `NC(=O)C1(c2cccc(C(=O)N3[C@@H](C(=O)N[C@@H](c4cc(F)c(Cl)cc4F)C4COC4)C[C@H]4C[C@H]43)c2)CC1` [Example 184, (1R,3R,5R)-2-(3-(1-carbamoylcyclopropyl)benzoyl)-N-((R)-(4-chloro-2,5-difluorophenyl)(3-oxetanyl)methyl)-2-azabicyclo[3.1.0]hexane-3-carboxamide] here?
A: Its AC1.4 is 0.3365 µM.

Q: `CC(C)[C@@H](NC(=O)[C@H]1CCCN1C(=O)c1cccc(S(=O)(=O)N(C)C)c1)c1ccc(C(F)(F)F)cc1F` [Example 185, 1-(3-(dimethylsulfamoyl)benzoyl)-N-((1R)-1-(2-fluoro-4-(trifluoromethyl)phenyl)-2-methylpropyl)-D-prolinamide] was tested. Which AC1.4 did it give?
A: The AC1.4 was 0.3371 µM.

Q: How did the AC1.4 turn out when `CC(C)(C)Nc1ccc(S(C)(=O)=O)cc1C(=O)N1CCC[C@@H]1C(=O)N[C@@H](c1ccc(C(F)(F)F)cc1F)C1CC1` [Example 186, N-((R)-cyclopropyl(2-fluoro-4-(trifluoromethyl)phenyl)methyl)-1-(2-((2-methyl-2-propanyl)amino)-5-(methylsulfonyl)benzoyl)-D-prolinamide] was run?
A: The AC1.4 was 0.3372 µM.

Q: Which AC1.4 does the source give for `N#CC1CN(S(=O)(=O)N2CCO[C@H](C(=O)N3CCC[C@@H]3C(=O)NCc3ccc(Cl)cc3F)C2)C1` [Example 187, N-(4-chloro-2-fluorobenzyl)-1-(((2S)-4-((3-cyano-1-azetidinyl)sulfonyl)-2-morpholinyl)carbonyl)-D-prolinamide] here?
A: Its AC1.4 is 0.3409 µM.

Q: `N#CC1CN(S(=O)(=O)c2cccc(C(=O)N3CCC[C@@H]3C(=O)N[C@@H](CO)c3ccc(C(F)(F)F)cc3)c2)C1` [Example 188, 1-(3-((3-cyano-1-azetidinyl)sulfonyl)benzoyl)-N-((1R)-2-hydroxy-1-(4-(trifluoromethyl)phenyl)ethyl)-D-prolinamide] was tested. Which AC1.4 did it give?
A: The AC1.4 was 0.3496 µM.

Q: How did the AC1.4 turn out when `N#CC1CN(S(=O)(=O)N2CC3CC2[C@@H](C(=O)N2CCC[C@@H]2C(=O)NCc2ccc(C(F)(F)F)cc2F)C3)C1` (stereo partly drawn) [Example 189, 1-((2-((3-cyano-1-azetidinyl)sulfonyl)-2-azabicyclo[2.2.1]hept-6-yl)carbonyl)-N-(2-fluoro-4-(trifluoromethyl)benzyl)-D-prolinamide] was run?
A: The AC1.4 was 0.3524 µM.

Q: How did the AC1.4 turn out when `N#CC1CN(S(=O)(=O)c2cccc(C(=O)N3CCC[C@@H]3C(=O)NCc3cccc(Cl)c3)c2)C1` [Example 190, N-(3-chlorobenzyl)-1-((3-((3-cyano-1-azetidinyl)sulfonyl)phenyl)carbonyl)-D-prolinamide] was run?
A: Its AC1.4 is 0.3569 µM.

Q: How did the AC1.4 turn out when `Cc1ccc(CNC(=O)[C@H]2CCCN2C(=O)[C@H]2CCCN(S(=O)(=O)N3CC(C#N)C3)C2)c(Cl)c1` [Example 191, N-(2-chloro-4-methylbenzyl)-1-(((3S)-1-((3-cyano-1-azetidinyl)sulfonyl)-3-piperidinyl)carbonyl)-D-prolinamide] was run?
A: Its AC1.4 is 0.3593 µM.

Q: How did the AC1.4 turn out when `N#C[C@H]1CCN(S(=O)(=O)N2CCC[C@H](C(=O)N3CCC[C@@H]3C(=O)NCc3ccc(C(F)(F)F)cc3)C2)C1` [Example 192, 1-(((3S)-1-(((3S)-3-cyano-1-pyrrolidinyl)sulfonyl)-3-piperidinyl)carbonyl)-N-(4-(trifluoromethyl)benzyl)-D-prolinamide] was run?
A: Its AC1.4 is 0.3628 µM.

Q: With `CS(=O)(=O)c1cccc(C(=O)N2[C@@H](C(=O)N[C@@H](c3ccc(C(F)(F)F)c(F)c3)C3COC3)C[C@H]3C[C@H]32)c1` [Example 193, (1R,3R,5R)-N-((R)-(3-fluoro-4-(trifluoromethyl)phenyl)(3-oxetanyl)methyl)-2-(3-(methylsulfonyl)benzoyl)-2-azabicyclo[3.1.0]hexane-3-carboxamide] as the compound, how does the AC1.4 read?
A: The AC1.4 was 0.3676 µM.

Q: `NS(=O)(=O)c1cccc(C(=O)N2CCCC[C@@H]2C(=O)N[C@@H](c2cc(F)c(Cl)cc2F)C2CC2)c1` [Example 194, (2R)-N-((R)-(4-chloro-2,5-difluorophenyl)(cyclopropyl)methyl)-1-(3-sulfamoylbenzoyl)-2-piperidinecarboxamide] was tested. Which AC1.4 did it give?
A: The AC1.4 was 0.385 µM.

Q: Which AC1.4 does the source give for `CC[C@H](NC(=O)[C@H]1CCCN1C(=O)[C@H]1CCCN(S(=O)(=O)N2CC(C#N)C2)C1)c1ccc(C(F)(F)F)cc1` [Example 195, 1-(((3S)-1-((3-cyano-1-azetidinyl)sulfonyl)-3-piperidinyl)carbonyl)-N-((1S)-1-(4-(trifluoromethyl)phenyl)propyl)-D-prolinamide] here?
A: The AC1.4 was 0.3859 µM.

Q: `C#CC1(O)CN(S(=O)(=O)N2CCC[C@H](C(=O)N3CCC[C@@H]3C(=O)NCc3ccc(C(F)(F)F)cc3F)C2)C1` [Example 196, 1 (((3S)-1-((3-ethynyl-3-hydroxy-1-azetidinyl)sulfonyl)-3-piperidinyl)carbonyl)-N-(2-fluoro-4-(trifluoromethyl)benzyl)-D-prolinamide] was tested. Which AC1.4 did it give?
A: The AC1.4 was 0.3906 µM.

Q: With `CS(=O)(=O)c1cccc(C(=O)N2[C@@H](C(=O)N[C@@H](c3cc(F)c(C(F)F)cc3F)C3CC3)C[C@H]3C[C@H]32)c1` [Example 197, (1R,3R,5R)-N-((R)-cyclopropyl(4-(difluoromethyl)-2,5-difluorophenyl)methyl)-2-(3-(methylsulfonyl)benzoyl)-2-azabicyclo[3.1.0]hexane-3-carboxamide] as the compound, how does the AC1.4 read?
A: The AC1.4 was 0.3963 µM.

Q: Which AC1.4 does the source give for `N#CC1CN(S(=O)(=O)N2CCC[C@H](C(=O)N3CCC[C@@H]3C(=O)N[C@@H](c3ccc(C(F)(F)F)cc3)C(F)(F)F)C2)C1` [Example 198, 1-(((3S)-1-((3-cyano-1-azetidinyl)sulfonyl)-3-piperidinyl)carbonyl)-N-((1S)-2,2,2-trifluoro-1-(4-(trifluoromethyl)phenyl)ethyl)-D-prolinamide] here?
A: The AC1.4 was 0.4034 µM.

Q: For `O=C(NCc1ccc(C(F)(F)F)cc1F)[C@H]1CCCN1C(=O)[C@H]1CCCN(S(=O)(=O)N2CC(O)(C3CC3)C2)C1` [Example 199, 1-(((3S)-1-((3-cyclopropyl-3-hydroxy-1-azetidinyl)sulfonyl)-3-piperidinyl)carbonyl)-N-(2-fluoro-4-(trifluoromethyl)benzyl)-D-prolinamide], which AC1.4 is on record?
A: The AC1.4 was 0.4078 µM.

Q: With `CS(=O)(=O)c1cccc(C(=O)N2C[C@@H](F)C[C@@H]2C(=O)N[C@@H](c2cc(F)c(Cl)cc2F)C2CC2)c1` [Example 201, (4S)-N-((R)-(4-chloro-2,5-difluorophenyl)(cyclopropyl)methyl)-4-fluoro-1-(3-(methylsulfonyl)benzoyl)-D-prolinamrde] as the compound, how does the AC1.4 read?
A: Its AC1.4 is 0.411 µM.

Q: For `CS(=O)(=O)c1ccnc(C(=O)N2[C@@H](C(=O)N[C@@H](c3cc(F)c(Cl)cc3F)C3CC3)C[C@H]3C[C@H]32)c1` [Example 202, (1R,3R,5R)-N-((R)-(4-chloro-2,5-difluorophenyl)(cyclopropyl)methyl)-2-((4-(methylsulfonyl)-2-pyridinyl)carbonyl)-2-azabicyclo[3.1.0]hexane-3-carboxamide], which AC1.4 is on record?
A: The AC1.4 was 0.4116 µM.

Q: How did the AC1.4 turn out when `O=C(NCc1ccc(C(F)(F)F)cc1)[C@H]1CCCN1C(=O)[C@H]1CCCN(S(=O)(=O)N2CC(n3ccnn3)C2)C1` [Example 203, 1-(((3S)-1-((3-(1H-l,2,3-triazol-1-yl)-1-azetidinyl)sulfonyl)-3-piperidinyl)carbonyl)-N-(4-(trifluoromethyl)benzyl)-D-prolinamide] was run?
A: Its AC1.4 is 0.4299 µM.
